Results as given in PubChem BioAssay AID2250 (Sanford-Burnham Center for Chemical Genomics, 2010).
Activity calls are given as the source filed them. How the calls were made is not given here.

Tested on: MCF-7/NOD1 cells, GM-Tri-DAP induced IL-8 secretion
Test: inhibition of NOD1-driven IL-8 release, SAR follow-up, MCF-7/NOD1 cells, GM-Tri-DAP stimulus (AID 2250)

| SMILES | IC50 |
| --- | --- |
| O=C(O)c1c(NC(=O)N2CCOCC2)sc2c1CCCC2 | > 25 µM (inactive) |
| Cc1ccc(S(=O)(=O)n2c(N)nc3cc(C)c(C)cc32)cc1 | > 5 µM (inactive) |
